Patent US20100105628A1, “REDUCING POST-OPERATIVE ADHESION FORMATION WITH INTRAPERITONEAL GLUTAMINE” (UNIVERSITY OF SASKATCHEWAN, priority 2007, published 2010)
In brackets after ≈: the same amount, converted by molar mass. Peptide text beside a SMILES is read from it.

What was measured:
male Wistar rats = assay: modified cecal puncture with pulstring, post-operative adhesion formation (Example 1); type: in vivo, rat; conditions: for complications due to intraperitoneal use: 0.3-1.5 g/kg intra-peritoneally; for acute inflammatory response (macrophages and macrophage chemotactic proteins): days 3-7
Experimental: 70 plus male Wistar rats (over 350 g each) were assessed histologically on post-operative days 1, 3, 5, 7, 10, 30, and at about 6 weeks. The rats were randomly distributed based on the mode of treatment, type of sutures and presence or absence of hemorrhage during surgery. Initially, there were three surgery groups (alanyl-glutamine treatment, saline, no treatment) plus a control (no surgery). A fifth group using L-glutamine instead of alanyl-glutamine was included after preliminary results were obtained.
The rats were anaesthetized with halothane/Ketamine. Open surgery involving a midline sub-umbilical incision and a modified cecal puncture with pulstring to prevent soilage after abdominal closure was done. The procedure involved some fecal extrusion, mimicking clinical scenarios of iatrogenic/traumatic perforations of the bowel. Alanyl-glutamine [Degussa; Coubevoie, France] (0.3 g/kg-1.5 g/kg); saline (5 ml); or L-glutamine [Wiler; PCCA] (1.5 g/kg) was instilled into the peritoneal cavity from a syringe. The cecum, abdomen, and the skin were closed in layers using the same suture. Various absorbable (3/0 Vicryl™, 3/0 Monocryl™, 3/0 PDS™, 2/0 Maxon™) and non-absorbable sutures (3/0 Prolene™, 3/0 Ethibond™, 4/0 & 5/0 Surgilene™, 3/0 Novafil™) were used. The wound was infiltrated with local anesthetic. The animals were given sufficient chow to eat (20 g/day≈2 mmole/kg/day). The gastrointestinal tract and omentum were harvested from the stomach to the sigmoid colon and fixed in formaldehyde solution for evaluation.
The severity of adhesions was assessed histologically using standard Haematoxylin & Eosin and Masson trichrome stained slides. The latter helped delineate the degree of fibrosis and collagen deposition.
Semi-quantitative analysis was done by scoring the average number of milky spots per high-power-field (HPF). Quantitative statistical analysis was done using the T-test between the experimental groups. Milky spots are a marker for inflammation and adhesion formation.
We evaluated macrophage activity following the abdominal surgery using a macrophage chemotactic protein (MCP1) antibody stain. MCP1 is a marker for macrophage activity. […] The fact that MCP1 was reduced by the treatment but was not completely absent is significant since complete absence is not desirable as it is associated with peritonitis and septic complications post-laparotomy.

[1] = cited from earlier work
rats = assay: cecal puncture with Marlex mesh inserted, adhesion score of Zuhlke (Example 2); type: in vivo, rat; conditions: day 90
Experimental: Previous studies show a high incidence of adhesion formation when surgical mesh is employed as a reinforcing material [6a, 6b]. We repeated trials as described in Example 1, inserting Marlex™ mesh during the procedure on the surgical groups.
Severity of adhesions was assessed at day 90 using the adhesion score of Zuhlke, et al.. This scoring procedure has been described in the literature for assessment of other potential treatments for adhesions. […] This differs from previous measurements of adhesions using polypropylene mesh which reported up to about 90% adhesion formation [6a].

Sprague-Dawley rats = assay: secondary adhesions after adhesiolysis, mesh implanted (Example 3); type: in vivo, rat; conditions: three weeks after adhesiolysis and alanyl-glutamine; six months after initial surgery with mesh
Experimental: Adhesions tend to recur once in place. We examined the effect of alanyl-glutamine treatment on such secondary adhesions. The modified cecal perforation with pulstring closure procedure described in Example 1 was performed on 9 Sprague-Dawley rats. These were divided into 5 groups, each group receiving a different form of mesh (INTERCEED™; PROCEED™; BARD™ composite; prolene; and a mesh which was allowed to be “infected” by repeated re-opening of the wound). The surgical procedure with mesh implacement was performed without application of a glutamine source. Six months after initial surgery, a laparotomy was performed on each rat then adhesiolysis followed by installation of alanyl-glutamine.

[2] = versus saline and non-treatment surgical groups

Structure (SMILES)	complications due to intraperitoneal use (male Wistar rats)	acute inflammatory response (macrophages and macrophage chemotactic proteins) (male Wistar rats; [2])	water solubility ([1]; at 20° C.) [mg/mL]	effectiveness of dosage (male Wistar rats; 0.3 g/kg intraperitoneal)	effectiveness of dosage (male Wistar rats; 1.5 g/kg intraperitoneal)	histological appearance of the peritoneum, adhesion (male Wistar rats; 10th post-operative day, intraperitoneal, compared with untreated and saline treated surgical groups)	fibrosis and collagen deposition (male Wistar rats; day-10 animals, versus saline and non-treatment surgical groups)	milky spots per 5 high power field (5HPF) (male Wistar rats; peritoneum, controls 1 per 5HPF, untreated surgical group 6-7 per 5HPF)	adhesions in all the suture groups (braided and monofilament) (male Wistar rats; rat, in vivo)	adhesion, histological, later assessment (male Wistar rats; rats assessed at 6 weeks)	adhesion score of Zuhlke (rats)	recurrence of adhesions (secondary adhesions), scored according to Zuhlke (Sprague-Dawley rats)	solubility in water [1] [mg/mL]
NC(=O)CC[C@H](N)C(=O)O [L-glutamine]	did not observe complications	reduction, but to a lesser extent	36 (≈ 246 mM)	–	–	–	–	–	–	–	–	–	–
C[C@H](N)C(=O)N[C@@H](CCC(N)=O)C(=O)O [alanyl-glutamine] (H-Ala-Gln-OH)	did not observe complications	markedly reduced	–	effective	effective	very minimal adhesion	reduced	the same as the controls	prevented adhesions	This result continued	0-1	no secondary adhesions were seen	568 (≈ 2610 mM)
NCC(=O)N[C@@H](CCC(N)=O)C(=O)O [Glycyl-glutamine] (H-Gly-Gln-OH)	–	–	–	–	–	–	–	–	–	–	–	–	154 (≈ 758 mM)
